From US20050096278A1, “Antibacterial agents” (priority 2003, published 2005) come the findings set out here.

For data set [1], the system named is E. faecalis MGH-2. Nature of the data set: Antibacterial assay (standard microtitration), MIC. The class given is cell-based. As to conditions: Enterococcus faecalis, MGH2; Gram Positive Bacteria; Table 1B; read-out: Minimum Inhibitory Concentrations, E. faecalis MGH-2. Here is the method: (§1) Test A—Antibacterial Assays
(§2) The compounds of the present invention were tested against an assortment of Gram-negative and Gram-positive organisms using standard microtitration techniques (Cohen et. al., Antimicrob., 1985;28:766; Heifetz, et. al., Antimicrob., 1974;6:124). The results of the evaluation are shown in Tables 1A and B. In the tables, “—” means no data.

Data set [2] has as its system S. aureus UC-76. Put plainly: Antibacterial assay (standard microtitration), MIC. The data set is classed as cell-based. As to conditions: Staphylococcus aureus, UC76, Gram Positive Bacteria; Table 1B; read-out: Minimum Inhibitory Concentrations, S. aureus UC-76. As for the experimental part:
as §1, §2

In data set [3] the test system is S pyogenes C203. Put plainly: Antibacterial assay (standard microtitration), MIC. The data set is classed as cell-based. As to conditions: Gram Positive Bacteria; Table 1B; read-out: Minimum Inhibitory Concentrations, S pyogenes C203. Here is the method:
as §1, §2

Data set [4] deals with H. influenzae HI-3542. Nature of the data set: Antibacterial assay (standard microtitration), MIC. The class given is cell-based. Conditions: Haemophilus influenzae, HI3542; Gram Negative Bacteria; Table 1A; read-out: Minimum Inhibitory Concentrations, H. influenzae HI-3542. As for the experimental part: as §1, §2
Data set [5] deals with E. coli MC4100. Nature of the data set: Antibacterial assay (standard microtitration), MIC. The class given is cell-based. Conditions: Escherichia coli, MC4100; Gram Negative Bacteria; Table 1A; read-out: Minimum Inhibitory Concentrations, E. coli MC4100. As for the experimental part:
as §1, §2

The test system of data set [6] is M. catarrhalis BC-3531. Put plainly: Antibacterial assay (standard microtitration), MIC. The data set is classed as cell-based. As to conditions: Moraxella catarrhalis, BC3531; Gram Negative Bacteria; Table 1A; read-out: Minimum Inhibitory Concentrations, M. catarrhalis BC-3531. As for the experimental part:
as §1, §2

≈ marks a conversion by molar mass, not a printed value.

The term melting point denotes the temperature of the solid-liquid transition.

`COc1c(N2CCC(CO)CC2)c(F)cc2c(=O)c(C(=O)O)cn(C3CC3)c12` [drawing 348]: the MIC in data set [1] is 0.125 µg/mL (≈ 0.32 µM); in data set [2], 0.015 µg/mL (≈ 0.0384 µM); in data set [3], 0.125 µg/mL (≈ 0.32 µM).
With `COc1c(N2CCC(CO)CC2)c(F)cc2c(=O)c(C(=O)O)cn(C3CC3)c12` [drawing 329], the figures for the MIC in data set [4], in data set [5] and in data set [6] were 0.015 µg/mL (≈ 0.0384 µM), 0.125 µg/mL (≈ 0.32 µM) and 0.015 µg/mL (≈ 0.0384 µM), respectively.
In the case of `COc1c(N2CCCC(O)C2)c(F)cc2c(=O)c(C(=O)O)cn(C3CC3)c12` (stereo not shown) [drawing 339], the MIC was 0.002 µg/mL (≈ 0.00531 µM) in data set [4], 0.125 µg/mL (≈ 0.332 µM) in data set [5] and 0.03 µg/mL (≈ 0.0797 µM) in data set [6].
Regarding `COc1c(N2CCCC(CO)C2)c(F)cc2c(=O)c(C(=O)O)cn(C3CC3)c12` (stereo not shown) [drawing 354], the MIC in data set [1] came to 0.125 µg/mL (≈ 0.32 µM); in data set [2], 0.015 µg/mL (≈ 0.0384 µM); in data set [3], 0.25 µg/mL (≈ 0.64 µM).
In the case of `COc1c(N2CCC(C(O)CO)CC2)c(F)cc2c(=O)c(C(=O)O)cn(C3CC3)c12` (stereo not shown), the melting point was in the range of 200 to 204 °C.
For the compound `COc1c(N2CCCC(CO)C2)c(F)cc2c(=O)c(C(=O)O)cn(C3CC3)c12` (stereo not shown) [drawing 335], the MIC amounted to 0.03 µg/mL (≈ 0.0768 µM) in data set [4], 0.25 µg/mL (≈ 0.64 µM) in data set [5] and 0.06 µg/mL (≈ 0.154 µM) in data set [6].
On to `COc1c(N2CCC(C(O)CCO)CC2)c(F)cc2c(=O)c(C(=O)O)cn(C3CC3)c12` (stereo not shown), for which the melting point was in the range of 210 to 214 °C.
Take `COc1c(N2CCC3(CC2)OCCO3)c(F)cc2c(=O)c(C(=O)O)cn(C3CC3)c12` [drawing 343]: the MIC in data set [1] is 0.25 µg/mL (≈ 0.597 µM); in data set [2], 0.015 µg/mL (≈ 0.0358 µM); in data set [3], 0.25 µg/mL (≈ 0.597 µM).
For the compound `Cc1c(N2CCCC(C)(O)C2)c(F)cc2c(=O)c(C(=O)O)cn(C3CC3)c12` (stereo not shown) [drawing 360], the figures for the MIC in data set [1] and in data set [3] were 0.5 µg/mL (≈ 1.34 µM) and 0.03 µg/mL (≈ 0.0801 µM), respectively.
Take `COc1c(N2CCC(O)(CO)CC2)c(F)cc2c(=O)c(C(=O)O)cn(C3CC3)c12` [drawing 347]: the MIC in data set [1] worked out at 1 µg/mL (≈ 2.46 µM); in data set [2], 0.015 µg/mL (≈ 0.0369 µM); in data set [3], 1 µg/mL (≈ 2.46 µM).
In the case of `COc1c(N2CCCC(C(O)CO)C2)c(F)cc2c(=O)c(C(=O)O)cn(C3CC3)c12` (stereo not shown) [drawing 353], the values for the MIC in data set [1], in data set [2] and in data set [3] were 8 µg/mL (≈ 19 µM), 1 µg/mL (≈ 2.38 µM) and 2 µg/mL (≈ 4.76 µM), respectively.
For `COc1c(N2CCCC(O)(CO)C2)c(F)cc2c(=O)c(C(=O)O)cn(C3CC3)c12` (stereo not shown) [drawing 336], the MIC in data set [4] was 0.03 µg/mL (≈ 0.0738 µM); in data set [5] it was 1 µg/mL (≈ 2.46 µM); in data set [6] it was 0.5 µg/mL (≈ 1.23 µM).
Take `Cc1c(N2CCC(O)C(C)(C)C2)c(F)cc2c(=O)c(C(=O)O)cn(C3CC3)c12` (stereo not shown) [drawing 349]: the MIC in data set [1] is 8 µg/mL (≈ 20.6 µM); in data set [2], 0.25 µg/mL (≈ 0.644 µM); in data set [3], 8 µg/mL (≈ 20.6 µM).
On to `COc1c(N2CCC(O)C(C)(C)C2)c(F)cc2c(=O)c(C(=O)O)cn(C3CC3)c12` (stereo not shown) [drawing 331], for which the MIC in data set [4] was 0.125 µg/mL (≈ 0.309 µM); in data set [5], 0.25 µg/mL (≈ 0.618 µM); in data set [6], 0.125 µg/mL (≈ 0.309 µM).
For `COc1c(N2CCC(C(O)CO)CC2)c(F)cc2c(=O)c(C(=O)O)cn(C3CC3)c12` (stereo not shown) [drawing 327], the MIC came to 0.03 µg/mL (≈ 0.0714 µM) in data set [4], 0.125 µg/mL (≈ 0.297 µM) in data set [5] and 0.06 µg/mL (≈ 0.143 µM) in data set [6].
Take `COc1c(N2CCC(O)C(O)C2)c(F)cc2c(=O)c(C(=O)O)cn(C3CC3)c12` (stereo not shown) [drawing 338]: the values for the MIC in data set [4], in data set [5] and in data set [6] were 0.008 µg/mL (≈ 0.0204 µM), 0.25 µg/mL (≈ 0.637 µM) and 0.125 µg/mL (≈ 0.319 µM), respectively.
Consider `COc1c(N2CCC(C(O)CO)CC2)c(F)cc2c(=O)c(C(=O)O)cn(C3CC3)c12` (stereo not shown) [drawing 346], for which the MIC in data set [1] turned out to be 0.25 µg/mL (≈ 0.595 µM); in data set [2], 0.015 µg/mL (≈ 0.0357 µM); in data set [3], 0.25 µg/mL (≈ 0.595 µM).
For the compound `COc1c(N2CCC(O)(c3ccccc3)CC2)c(F)cc2c(=O)c(C(=O)O)cn(C3CC3)c12` [drawing 333], the MIC in data set [4] was determined as 2 µg/mL (≈ 4.42 µM); in data set [5] it was 32 µg/mL (≈ 70.7 µM); in data set [6], 1 µg/mL (≈ 2.21 µM).
Take `COc1c(N2CCC(O)C(O)C2)c(F)cc2c(=O)c(C(=O)O)cn(C3CC3)c12` (stereo not shown) [drawing 357]: the MIC in data set [1] was found to be 0.125 µg/mL (≈ 0.319 µM); in data set [2], 0.008 µg/mL (≈ 0.0204 µM); in data set [3] it was 0.125 µg/mL (≈ 0.319 µM).
Take `COc1c(N2CCC3(CC2)OCCO3)c(F)cc2c(=O)c(C(=O)O)cn(C3CC3)c12` [drawing 325]: the results for the MIC in data set [4], in data set [5] and in data set [6] were 0.06 µg/mL (≈ 0.143 µM), 0.5 µg/mL (≈ 1.19 µM) and 0.06 µg/mL (≈ 0.143 µM), respectively.
For the compound `Cc1c(N2CCCC(C)(O)C2)c(F)cc2c(=O)c(C(=O)O)cn(C3CC3)c12` (stereo not shown) [drawing 341], the MIC amounted to 0.06 µg/mL (≈ 0.16 µM) in data set [4], 0.5 µg/mL (≈ 1.34 µM) in data set [5] and 0.125 µg/mL (≈ 0.334 µM) in data set [6].
